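Grown in 96-well plates, cells were treated for 48 hours with each compound at five concentrations. Insufficient inhibition: endpoint recorded as highest concentration tested. Abbreviation: GI50, concentration required for 50% inhibition of growth.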 The source made the active and inactive calls. No stated cut-off is given here; in the data, active = GI50 up to about 1.1 µM and inactive = higher.
Key:
Assay in all cases: DTP human tumour cell line panel, 48 h
[1] = system: SF-268
[2] = system: MDA-MB-435
[3] = system: A549
[4] = system: SF-295
[5] = system: HCT-116
[6] = system: OVCAR-5
[7] = system: U-251
[8] = system: M14
[9] = system: NCI-H460
[10] = system: RXF 393
[11] = system: T47D
[12] = system: OVCAR-4
[13] = system: DU-145
[14] = system: KM12
[15] = system: HCT-15
[16] = system: RPMI-8226
[17] = system: UACC-62
[18] = system: 786-0
[19] = system: SNB-75
[20] = system: CAKI-1
[21] = system: SK-OV-3
[22] = system: BT-549
[23] = system: PC-3
[24] = system: HL-60
[25] = system: SK-MEL-2
[26] = system: LOX IMVI
[27] = system: UO-31
[28] = system: Hs-578T
[29] = system: MDA-MB-231
[30] = system: HCC 2998
[31] = system: COLO 205
[32] = system: SK-MEL-5
[33] = system: EKVX
[34] = system: SR
[35] = system: SNB-19
[36] = system: MCF7
[37] = system: Malme-3M
[38] = system: A498
[39] = system: ACHN
[40] = system: OVCAR-3
[41] = system: NCI-H23
[42] = system: NCI/ADR-RES
[43] = system: SW-620
[44] = system: HOP-92
[45] = system: SF-539
[46] = system: HOP-62
[47] = system: TK-10
[48] = system: MOLT-4
[49] = system: SN12C
[50] = system: CCRF-CEM
[51] = system: IGROV-1
[52] = system: NCI-H522
[53] = system: NCI-H226
[54] = system: UACC-257
[55] = system: K562
[56] = system: SK-MEL-28
[57] = system: OVCAR-8
[58] = system: HT-29
[59] = system: MDA-N

## COc1ccc(-c2cc(-c3ccc(Nc4ccnc5cc(C(F)(F)F)ccc45)cc3)nc(N)c2C#N)c2ccccc12
[1]
  GI50: > 100 µM (inactive)
[2]
  GI50: > 100 µM (inactive)
[3]
  GI50: > 100 µM (inactive)
[4]
  GI50: > 100 µM (inactive)
[5]
  GI50: 97.9 µM (inactive)
[6]
  GI50: > 100 µM (inactive)
[7]
  GI50: > 100 µM (inactive)
[8]
  GI50: > 100 µM (inactive)
[9]
  GI50: > 100 µM (inactive)
[10]
  GI50: > 100 µM (inactive)
[11]
  GI50: > 100 µM (inactive)
[12]
  GI50: > 100 µM (inactive)
[13]
  GI50: > 100 µM (inactive)
[14]
  GI50: 68.5 µM (inactive)
[15]
  GI50: > 100 µM
[16]
  GI50: > 100 µM (inactive)
[17]
  GI50: > 100 µM (inactive)
[18]
  GI50: > 100 µM (inactive)
[19]
  GI50: > 100 µM (inactive)
[20]
  GI50: > 100 µM (inactive)
[21]
  GI50: > 100 µM (inactive)
[22]
  GI50: 36.6 µM (inactive)
[23]
  GI50: > 100 µM (inactive)
[24]
  GI50: 70.3 µM (inactive)
[25]
  GI50: > 100 µM (inactive)
[26]
  GI50: 29.4 µM (inactive)
[27]
  GI50: > 100 µM (inactive)
[28]
  GI50: 65.2 µM (inactive)
[29]
  GI50: > 100 µM (inactive)
[30]
  GI50: > 100 µM (inactive)
[31]
  GI50: > 100 µM (inactive)
[32]
  GI50: > 100 µM (inactive)
[33]
  GI50: > 100 µM (inactive)
[34]
  GI50: 32.5 µM (inactive)
[35]
  GI50: > 100 µM (inactive)
[36]
  GI50: 97.9 µM (inactive)
[37]
  GI50: > 100 µM (inactive)
[38]
  GI50: > 100 µM (inactive)
[39]
  GI50: > 100 µM (inactive)
[40]
  GI50: > 100 µM (inactive)
[41]
  GI50: > 100 µM (inactive)
[42]
  GI50: > 100 µM (inactive)
[43]
  GI50: > 100 µM (inactive)
[44]
  GI50: > 100 µM (inactive)
[45]
  GI50: > 100 µM (inactive)
[46]
  GI50: > 100 µM (inactive)
[47]
  GI50: > 100 µM (inactive)
[48]
  GI50: 53.3 µM (inactive)

## CC(C)(C)OC(=O)NCC(O)CNC(=O)OC(C)(C)C
[1]
  GI50: > 100 µM (inactive)
[2]
  GI50: > 100 µM (inactive)
[3]
  GI50: > 100 µM (inactive)
[4]
  GI50: > 100 µM (inactive)
[49]
  GI50: > 100 µM (inactive)
[5]
  GI50: > 100 µM (inactive)
[6]
  GI50: > 100 µM (inactive)
[50]
  GI50: > 100 µM (inactive)
[7]
  GI50: > 100 µM (inactive)
[8]
  GI50: > 100 µM (inactive)
[51]
  GI50: > 100 µM (inactive)
[9]
  GI50: > 100 µM (inactive)
[10]
  GI50: > 100 µM (inactive)
[11]
  GI50: > 100 µM (inactive)
[12]
  GI50: > 100 µM (inactive)
[52]
  GI50: > 100 µM (inactive)
[13]
  GI50: > 100 µM (inactive)
[14]
  GI50: > 100 µM (inactive)
[15]
  GI50: > 100 µM
[16]
  GI50: > 100 µM (inactive)
[17]
  GI50: > 100 µM (inactive)
[18]
  GI50: > 100 µM (inactive)
[20]
  GI50: > 100 µM (inactive)
[53]
  GI50: > 100 µM (inactive)
[54]
  GI50: > 100 µM (inactive)
[21]
  GI50: > 100 µM (inactive)
[55]
  GI50: > 100 µM (inactive)
[22]
  GI50: > 100 µM (inactive)
[23]
  GI50: > 100 µM (inactive)
[24]
  GI50: > 100 µM (inactive)
[56]
  GI50: > 100 µM (inactive)
[26]
  GI50: > 100 µM (inactive)
[27]
  GI50: > 100 µM (inactive)
[28]
  GI50: > 100 µM (inactive)
[29]
  GI50: > 100 µM (inactive)
[30]
  GI50: > 100 µM (inactive)
[31]
  GI50: > 100 µM (inactive)
[32]
  GI50: > 100 µM (inactive)
[33]
  GI50: > 100 µM (inactive)
[34]
  GI50: > 100 µM (inactive)
[35]
  GI50: > 100 µM (inactive)
[36]
  GI50: > 100 µM (inactive)
[37]
  GI50: > 100 µM (inactive)
[38]
  GI50: > 100 µM (inactive)
[39]
  GI50: > 100 µM (inactive)
[40]
  GI50: > 100 µM (inactive)
[41]
  GI50: > 100 µM (inactive)
[42]
  GI50: > 100 µM (inactive)
[43]
  GI50: > 100 µM (inactive)
[44]
  GI50: > 100 µM (inactive)
[45]
  GI50: > 100 µM (inactive)
[46]
  GI50: > 100 µM (inactive)
[47]
  GI50: > 100 µM (inactive)
[48]
  GI50: > 100 µM (inactive)
[57]
  GI50: > 100 µM (inactive)

## O=C1C(NCCc2ccc(O)c([N+](=O)[O-])c2)=CC(=O)c2[nH]cnc21
[2]
  GI50: 18.6 µM (inactive)
[58]
  GI50: 34.6 µM (inactive)
[3]
  GI50: 28.6 µM (inactive)
[4]
  GI50: 10.5 µM (inactive)
[49]
  GI50: 26.2 µM (inactive)
[5]
  GI50: 24.7 µM (inactive)
[6]
  GI50: 33.3 µM (inactive)
[7]
  GI50: 32.3 µM (inactive)
[8]
  GI50: 15 µM (inactive)
[51]
  GI50: 29.9 µM (inactive)
[9]
  GI50: 24.8 µM (inactive)
[11]
  GI50: 18.5 µM (inactive)
[52]
  GI50: 18.6 µM (inactive)
[14]
  GI50: 42.9 µM (inactive)
[15]
  GI50: 39.7 µM
[16]
  GI50: 32.7 µM (inactive)
[17]
  GI50: 20.8 µM (inactive)
[18]
  GI50: 47.2 µM (inactive)
[54]
  GI50: 18.3 µM (inactive)
[55]
  GI50: 18.4 µM (inactive)
[22]
  GI50: > 10 µM (inactive)
[23]
  GI50: 67 µM (inactive)
[24]
  GI50: 21.2 µM (inactive)
[25]
  GI50: 16 µM (inactive)
[56]
  GI50: 14.3 µM (inactive)
[26]
  GI50: 15.8 µM (inactive)
[27]
  GI50: 76.9 µM (inactive)
[59]
  GI50: 16.3 µM (inactive)
[28]
  GI50: 83.9 µM (inactive)
[29]
  GI50: 22.7 µM (inactive)
[30]
  GI50: 51.5 µM (inactive)
[31]
  GI50: 43.8 µM (inactive)
[32]
  GI50: 16.2 µM (inactive)
[33]
  GI50: 27.4 µM (inactive)
[35]
  GI50: 89.5 µM (inactive)
[36]
  GI50: 32 µM (inactive)
[37]
  GI50: 5.79 µM (inactive)
[38]
  GI50: 32.1 µM (inactive)
[39]
  GI50: 44.3 µM (inactive)
[40]
  GI50: 15.2 µM (inactive)
[41]
  GI50: 17.1 µM (inactive)
[42]
  GI50: > 100 µM (inactive)
[43]
  GI50: 44.6 µM (inactive)
[45]
  GI50: 38 µM (inactive)
[46]
  GI50: 68.4 µM (inactive)
[47]
  GI50: 36.1 µM (inactive)
[48]
  GI50: 19.8 µM (inactive)
[57]
  GI50: 25 µM (inactive)

— ChEMBL document CHEMBL1201862, “PubChem BioAssay data set” (2004)
